Experimental data: patent US9458463B2, “Method for treatment of diabetes by a small molecule inhibitor for GRK5” (MAX-PLANCK-GESELLSCHAFT ZUR FÖRDERUNG DER WISSENSCHAFTEN …, priority 2010, dated 2016)

Key:
full length GRK5 = target: T1, full length GRK5 (Homo sapiens, UniProt P34947); assay: GRK5 kinase activity assay, ADP Glo Kinase Assay technology (Promega); type: biochemical; settings: group II; ADP Glo Kinase Assay (Table 9-B)
T1 construct: 6/2 fold concentrated full length GRK5 (Millipore, #14-714) in reaction buffer; purchased Millipore 14-714
Summary of the method: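 Casein (10 μM) phosphorylation with 100 μM ATP in 20 mM MES pH 6.0, 1 mM DTT, 10 mM MgCl2, 0.01% Tween20, 120 min at room temperature; ADP quantified by ADP-Glo luminescence.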

GRK5 = target: T2, GRK5 (Homo sapiens, UniProt P34947); assay: Millipore KinaseProfiler radiometric filtration binding assay; type: biochemical; settings: group II; Millipore KinaseProfiler (Table 10)
T2 construct: purchased Millipore (KinaseProfiler service)
Method: (§1) As alternative, IC50 values are determined by a radiometric based filtration binding assay, namely Millipore KinaseProfiler™. GRK5 is incubated with 8 mM MOPS pH7.0, 0.2 mM EDTA, 2 mg/mL casein, 10 mM MgAcetate and […] (specific activity approx. 500 cpm/pmol, concentration as required). The reaction is initiated by the addition of the MgATP mix. After incubation for 40 minutes at room temperature, the reaction is stopped by the addition of 3% phosphoric acid solution. 10 μL of the reaction is then spotted onto a P30 filtermat and washed three times for 5 minutes in 75 mM phosphoric acid and once in methanol prior to drying and scintillation counting.
as §1, with “IC50” for “As alternative, IC50”, “pH 7.0,” for “pH7.0,”

3T3-L1 cells = assay: Cell viability assay (CellTiter-Glo / automated cell number) in 3T3-L1; type: cell-based; settings: Mus musculus, read-out: Inhibition of cell viability IC50
Source text: (§2) Luminescent cell viability assay. For the detection of cell viability, the CellTiter-Glo® Luminescent Cell Viability Assay was used. This test is based on a luciferase reaction to measure the amount of ATP in cells. This correlates directly with the number of cells and their viability because cells lose the ability to synthesize ATP directly after e.g. loss of membrane integrity or a cytotoxic event. The protocol was adapted to 24 well plates and to the different culture conditions resulting in a standardized protocol which is described below. Cell lysis, inhibition of endogenous ATPases and detection of ATP was performed by adding the CellTiter-Glo® Reagent to the culture wells. Per well, 100 μl reagent were mixed with the same volume of proper Medium. Lysing of the cells took place by 10 min incubation at RT and moderate shaking. Three times 50 μl cell lysate was transferred into a white 96 well plate to eliminate stray light, and the bioluminescence was measured.
(§3) In a 96 well dish 10000 cells per well (100 μl) were seed and treated for 72 h. At the end of the treatment, cells were fixed with 4% paraformaldehyde in PBS for 15 minutes, permeabilized with 0.1% triton-X 100 in PBS for 15 minutes and stained with Hoechst 33342 (20 μg/ml in PBS; dilute from 20 mg/ml stock) directly to cells in 100 μl medium in PBS for 30 minutes at 37° C. Stained cells were imaged with a Cellomics ArrayScan VT I automated microscope. Images were analyzed with vHCS Scan Target Activation software v5.1.2 to identify apoptotic cells. Six fields per well of a 96 well plate we re-imaged at 10× magnification. First, cells were identified by their nuclei staining in channel 1 of Cellomics and their amount. Staining intensity was plotted and compared between NT controls and compound treated cells. Finally, data was obtained using vHCS View software v 5.1.2 and the numbers of cells present in the 96 well were identified as “Valid Object Count” whereas the percentage of infection was determined as “% selected”. IC50 values have been calculated accordingly.

beta TC6 cells = assay: Cell viability assay (CellTiter-Glo / automated cell number) in beta TC6; type: cell-based; settings: Mus musculus, read-out: Inhibition of cell viability IC50
Source text: as §2, §3

C2C12 cells = assay: Cell viability assay (CellTiter-Glo / automated cell number) in C2C12; type: cell-based; settings: Mus musculus, read-out: Inhibition of cell viability IC50
Source text: as §2, §3

HepG2 cells = assay: Cell viability assay (CellTiter-Glo / automated cell number) in HepG2; type: cell-based; settings: Homo sapiens, read-out: Inhibition of cell viability IC50
Source text: as §2, §3

[1] = test system: beta-TC6 insulinoma cells; assay: Insulin release by beta-TC6 cells, rat/mouse insulin ELISA, high glucose; type: cell-based; settings: Mus musculus, Beta-TC6, 2 h, group II; 5 μM, 2 h, high glucose (4.5 g/L); % increase in regard to DMSO control (set at 0%)
Method: (§4) Release of insulin was detected using a rat/mouse insulin ELISA.
After incubation, the supernatant of the beta-TC6 insulinoma cells was diluted 1:20. The insulin release was measured with rat/mouse insulin ELISA (Merck Millipore Darmstadt, Cat. # EZRMI-13K) by following the manufacture protocol. The enzyme activity of the horseradish peroxidase of the immobilized biotinylated antibodies was monitored spectrophotometrically by the increased absorbency at 490 nm, and corrected by the absorbency at 610 nm.
as §4
The effect on the insulin release of each kinase depletion was monitored by using a rat/mouse insulin ELISA.
For the validation of the negative modulating kinases SCYL1, GRK5, and ADCK1, the target genes were depleted using four different siRNA-sequences each (FIG. 2A-D). The gene-depletion was measured via mRNA-levels after 72 hours while the insulin release was measured using a rat/mouse insulin ELISA after two hours incubation.

T2 sequence (P34947 whole entry): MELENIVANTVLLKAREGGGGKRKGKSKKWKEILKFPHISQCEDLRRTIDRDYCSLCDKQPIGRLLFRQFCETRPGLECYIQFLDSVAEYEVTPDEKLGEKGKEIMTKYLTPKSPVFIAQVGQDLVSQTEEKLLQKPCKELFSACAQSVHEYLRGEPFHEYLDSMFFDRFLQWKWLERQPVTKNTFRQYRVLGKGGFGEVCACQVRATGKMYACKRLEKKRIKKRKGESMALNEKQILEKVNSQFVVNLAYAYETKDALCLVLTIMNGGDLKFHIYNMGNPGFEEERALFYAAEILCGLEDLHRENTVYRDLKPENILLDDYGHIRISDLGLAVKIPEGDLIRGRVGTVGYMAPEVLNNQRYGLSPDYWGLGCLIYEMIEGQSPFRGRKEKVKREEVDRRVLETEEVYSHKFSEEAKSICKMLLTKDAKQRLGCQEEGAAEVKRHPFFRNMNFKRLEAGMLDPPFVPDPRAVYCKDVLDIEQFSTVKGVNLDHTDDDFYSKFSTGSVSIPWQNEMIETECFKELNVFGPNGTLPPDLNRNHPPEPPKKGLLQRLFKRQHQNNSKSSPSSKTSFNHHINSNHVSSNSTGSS
T1 sequence (P34947 whole entry): as above

Row | SMILES | IC50 (full length GRK5) | IC50 (GRK5) | IC50 (3T3-L1 cells) | IC50 (beta TC6 cells) | IC50 (C2C12 cells) | IC50 (HepG2 cells) | activation at 5 µM [1]
1 | CC[C@H](NC(=O)c1ccc2c(c1)/C(=C/c1[nH]c(C)c(C(=O)N3CCC[C@H]3CN3CCCC3)c1C)C(=O)N2)c1ccccc1 [II.47, (3Z)-3-[(3,5-dimethyl-4-{[(2S)-2-(pyrrolidin-1-ylmethyl)pyrrolidin-1-yl]carbonyl}-1H-pyrrol-2-yl)methylene]-2-oxo-N-[(1S)-1-phenylpropyl]indoline-5-carboxamide] | 2000 to 10000 nM | 2000 to 10000 nM | 1340 nM | 2210 nM | > 10000 nM | 3250 nM | –
2 | C[C@@H](c1ccccc1)N(C)C(=O)c1ccc2c(c1)/C(=C/Nc1ccc(CN3CCCCC3)cc1)C(=O)N2 [II.71, (3Z)-N-methyl-2-oxo-N-[(1S)-1-phenylethyl]-3-({[4-(piperidin-1-ylmethyl)phenyl]amino}methylene)indoline-5-carboxamide] | 2000 to 10000 nM | 2000 to 10000 nM | 3100 nM | 2750 nM | 4260 nM | 2530 nM | –
3 | CC[C@@H](NC(=O)c1ccc2c(c1)/C(=C/c1[nH]c(C)c(C(=O)N3CCC[C@@H]3CN3CCCC3)c1C)C(=O)N2)c1ccccc1 [II.48, (3Z)-3-[(3,5-dimethyl-4-{[(2R)-2-(pyrrolidin-1-ylmethyl)pyrrolidin-1-yl]carbonyl}-1H-pyrrol-2-yl)methylene]-2-oxo-N-[(1R)-1-phenylpropyl]indoline-5-carboxamide] | 100 to 1000 nM | 100 to 1000 nM | 600 nM | 1080 nM | > 10000 nM | 1430 nM | –
4 | Cc1[nH]c(/C=C2\C(=O)Nc3ccc(C(=O)N[C@@H]4CCc5ccccc54)cc32)c(C)c1C(=O)N1CCC[C@@H]1CN1CCCC1 [II.30, (3Z)-N-[(1R)-2,3-dihydro-1H-inden-1-yl]-3-[(3,5-dimethyl-4-{[(2R)-2-(pyrrolidin-1-ylmethyl)pyrrolidin-1-yl]carbonyl}-1H-pyrrol-2-yl)methylene]-2-oxoindoline-5-carboxamide] | 2000 to 10000 nM | 2000 to 10000 nM | 810 nM | 1690 nM | > 10000 nM | 2840 nM | –
5 | Cc1ccc([C@@H](C)NC(=O)c2ccc3c(c2)/C(=C/Nc2ccc(CN4CCCCC4)cc2)C(=O)N3)cc1 [II.72, (3Z)-N-[(1R)-1-(4-methylphenyl)ethyl]-2-oxo-3-({[4-(piperidin-1-ylmethyl)phenyl]amino}methylene)indoline-5-carboxamide] | 100 to 1000 nM | 100 to 1000 nM | 1540 nM | 1270 nM | > 10000 nM | 2070 nM | –
6 | CC[C@@H](NC(=O)c1ccc2c(c1)/C(=C/c1[nH]c(C)c(C(=O)N3CCC(N4CCN(C)CC4)CC3)c1C)C(=O)N2)c1ccccc1 [II.53, (3Z)-3-[(3,5-dimethyl-4-{[4-(4-methylpiperazin-1-yl)piperidin-1-yl]carbonyl}-1H-pyrrol-2-yl)methylene]-2-oxo-N-[(1R)-1-phenylpropyl]indoline-5-carboxamide] | 100 to 1000 nM | 100 to 1000 nM | 1140 nM | 1550 nM | > 10000 nM | 1300 nM | –
7 | CC[C@@H](NC(=O)c1ccc2c(c1)/C(=C/c1[nH]c(C)c(C(=O)N3CCCCC3)c1C)C(=O)N2)c1ccccc1 [II.63, (3Z)-3-{[3,5-dimethyl-4-(piperidin-1-ylcarbonyl)-1H-pyrrol-2-yl]methylene)-2-oxo-N-[(1R)-1-phenylpropyl]indoline-5-carboxamide] | 100 to 1000 nM | 100 to 1000 nM | 940 nM | 1260 nM | 1720 nM | 1250 nM | –
8 | Cc1[nH]c(/C=C2\C(=O)Nc3ccc(C(=O)N[C@H](C)c4cccc(Cl)c4)cc32)c(C)c1C(=O)N1CCCCC1 [II.55, (3Z)-N-[(1R)-1-(3-chlorophenyl)ethyl]-3-{[3,5-dimethyl-4-(piperidin-1-ylcarbonyl)-1H-pyrrol-2-yl]methylene}-2-oxoindoline-5-carboxamide] | 100 to 1000 nM | 100 to 1000 nM | 860 nM | 1100 nM | 1410 nM | 790 nM | –
9 | CC[C@@H](NC(=O)c1ccc2c(c1)/C(=C/c1[nH]c(C)c(C(=O)N3CCC[C@H]3CN3CCCC3)c1C)C(=O)N2)c1ccccc1 [II.46, (3Z)-3-[(3,5-dimethyl-4-{[(2S)-2-(pyrrolidin-1-ylmethyl)pyrrolidin-1-yl]carbonyl}-1H-pyrrol-2-yl)methylene]-2-oxo-N-[(1R)-1-phenylpropyl]indoline-5-carboxamide] | < 100 nM | < 100 nM | 320 nM | 220 nM | 8860 nM | 780 nM | –
10 | CCC(NC(=O)c1ccc2c(c1)/C(=C/c1[nH]c(C)c(C(=O)N3CCN(C)CC3)c1C)C(=O)N2)c1ccc(Cl)cc1 (stereo not shown) [II.12, (3Z)-N-[1-(4-chlorophenyl)propyl]-3-({3,5-dimethyl-4-[(4-methylpiperazin-1-yl)carbonyl]-1H-pyrrol-2-yl}methylene)-2-oxoindoline-5-carboxamide] | 100 to 1000 nM | 100 to 1000 nM | – | – | – | – | 214%
11 | COc1ccc([C@@H](C)NC(=O)c2ccc3c(c2)/C(=C/Nc2ccc(CN4CCCCC4)cc2)C(=O)N3)cc1 [II.70, (3Z)-N-[(1R)-1-(4-methoxyphenyl)ethyl]-2-oxo-3-({[4-(piperidin-1-ylmethyl)phenyl]amino}methylene)indoline-5-carboxamide] | 100 to 1000 nM | 100 to 1000 nM | 2160 nM | 1480 nM | > 10000 nM | 1810 nM | –
12 | Cc1[nH]c(/C=C2\C(=O)Nc3ccc(C(=O)N[C@H](C)c4ccccc4)cc32)c(C)c1C(=O)N1CCC[C@H]1CN1CCCC1 [II.16, (3Z)-3-[(3,5-dimethyl-4-{[(2S)-2-(pyrrolidin-1-ylmethyl)pyrrolidin-1-yl]carbonyl}-1H-pyrrol-2-yl)methylene]-2-oxo-N-[(1R)-1-phenylethyl]indoline-5-carboxamide] | – | 100 to 1000 nM | – | – | – | – | –
13 | Cc1[nH]c(/C=C2\C(=O)Nc3ccc(C(=O)N[C@H](C)c4ccc(Cl)cc4)cc32)c(C)c1C(=O)N1CCCC1 [II.67, (3Z)-N-[(1R)-1-(4-chlorophenyl)ethyl]-3-{[3,5-dimethyl-4-(pyrrolidin-1-ylcarbonyl)-1H-pyrrol-2-yl]methylene}-2-oxoindoline-5-carboxamide] | 100 to 1000 nM | – | 1520 nM | 1940 nM | 3940 nM | 1470 nM | 159%
